Source: article PMC7567858, “Structure of inhibitor-bound mammalian complex I” (Nature Communications, 2020)

How the values were obtained:
[1] = biological target: T1, NDUFA10 (in mouse complex I) (Mus musculus, UniProt Q99LC3); test: cryo-EM structure, […] Å; assay type: binding; settings: nucleotide bound to NDUFA10, adenine stacks on Phe134
T1 construct: supernumerary subunit within native intact complex I from mouse heart mitochondria
T1 sequence (Q99LC3 36-355): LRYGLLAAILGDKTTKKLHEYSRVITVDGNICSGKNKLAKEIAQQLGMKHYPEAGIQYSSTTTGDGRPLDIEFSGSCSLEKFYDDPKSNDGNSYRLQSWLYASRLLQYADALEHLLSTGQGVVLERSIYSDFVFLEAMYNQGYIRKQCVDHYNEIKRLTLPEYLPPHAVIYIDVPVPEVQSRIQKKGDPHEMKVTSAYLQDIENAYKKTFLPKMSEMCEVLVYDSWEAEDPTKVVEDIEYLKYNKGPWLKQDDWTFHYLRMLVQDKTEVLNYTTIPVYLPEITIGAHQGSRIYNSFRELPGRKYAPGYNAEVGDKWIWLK

[2] = biological target: T2, complex I (NADH:ubiquinone oxidoreductase), bovine (Bos taurus, UniProt P03887+P17694+P42026); test: NADH oxidation ([…]-380 nm) in complex I-AOX proteoliposomes; assay type: biochemical; settings: Q10 in membrane phase (nmol per mg phospholipid), no piericidin, AOX recycling, 200 uM NADH, pH 7.5, 32 °C
T2 construct: gene NDUFS2; native intact 45-subunit complex I from heart; in proteoliposomes with Q10 and AOX, or detergent-solubilised (EPR sample); with NADH-ubiquinone oxidoreductase chain 2; NADH-ubiquinone oxidoreductase chain 3; NADH-ubiquinone oxidoreductase chain 4; NADH-ubiquinone oxidoreductase chain 4L; NADH-ubiquinone oxidoreductase chain 5; NADH-ubiquinone oxidoreductase chain 6; NADH-ubiquinone oxidoreductase 75 kDa subunit, mitochondrial; NADH dehydrogenase [ubiquinone] flavoprotein 1, mitochondrial; NADH dehydrogenase [ubiquinone] flavoprotein 2, mitochondrial; NADH dehydrogenase [ubiquinone] iron-sulfur protein 3, mitochondrial; NADH dehydrogenase [ubiquinone] iron-sulfur protein 8, mitochondrial

[3] = biological target: T3, mouse complex I (Mus musculus, UniProt P03888+Q91WD5+Q9DC70); test: cryo-EM structure, […] Å; settings: ubiquinone-binding site, active state, cluster N2 reduced; NDUFS2 His59 and Tyr108
T3 construct: gene Ndufs2; native intact 45-subunit complex I purified from heart mitochondria in DDM; with NADH-ubiquinone oxidoreductase chain 2; NADH-ubiquinone oxidoreductase chain 3; NADH-ubiquinone oxidoreductase chain 4; NADH-ubiquinone oxidoreductase chain 4L; NADH-ubiquinone oxidoreductase chain 5; NADH-ubiquinone oxidoreductase chain 6; NADH-ubiquinone oxidoreductase 75 kDa subunit, mitochondrial; NADH dehydrogenase [ubiquinone] flavoprotein 1, mitochondrial; NADH dehydrogenase [ubiquinone] flavoprotein 2, mitochondrial; NADH dehydrogenase [ubiquinone] iron-sulfur protein 3, mitochondrial; NADH dehydrogenase [ubiquinone] iron-sulfur protein 8, mitochondrial

[4] = biological target: T2, complex I (NADH:ubiquinone oxidoreductase), bovine; test: global kinetic fit of NADH oxidation in proteoliposomes; assay type: biochemical; settings: two-site competitive model; second inhibitor binds more tightly; Q10 varied, AOX recycling, 200 uM NADH, pH 7.5, 32 °C

T2 sequence (P17694 34-463): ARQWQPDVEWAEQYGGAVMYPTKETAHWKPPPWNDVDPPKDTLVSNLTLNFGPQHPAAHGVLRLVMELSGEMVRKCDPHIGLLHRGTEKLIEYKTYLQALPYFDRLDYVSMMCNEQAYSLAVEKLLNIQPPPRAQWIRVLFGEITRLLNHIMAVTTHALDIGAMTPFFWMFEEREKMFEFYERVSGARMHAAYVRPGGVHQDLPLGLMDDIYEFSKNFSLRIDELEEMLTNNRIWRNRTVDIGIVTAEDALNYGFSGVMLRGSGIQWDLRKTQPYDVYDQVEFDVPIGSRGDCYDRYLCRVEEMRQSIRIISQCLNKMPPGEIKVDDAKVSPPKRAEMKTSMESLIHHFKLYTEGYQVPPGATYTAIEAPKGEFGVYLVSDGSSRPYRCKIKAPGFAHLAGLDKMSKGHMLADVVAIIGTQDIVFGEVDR
T2 sequence (P42026 38-216): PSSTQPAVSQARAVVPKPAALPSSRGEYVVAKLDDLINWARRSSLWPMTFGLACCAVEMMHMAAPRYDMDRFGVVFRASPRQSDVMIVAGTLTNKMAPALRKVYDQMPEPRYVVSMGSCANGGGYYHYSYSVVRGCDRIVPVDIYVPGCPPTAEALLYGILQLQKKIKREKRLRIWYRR
T2 sequence (P03887 whole entry): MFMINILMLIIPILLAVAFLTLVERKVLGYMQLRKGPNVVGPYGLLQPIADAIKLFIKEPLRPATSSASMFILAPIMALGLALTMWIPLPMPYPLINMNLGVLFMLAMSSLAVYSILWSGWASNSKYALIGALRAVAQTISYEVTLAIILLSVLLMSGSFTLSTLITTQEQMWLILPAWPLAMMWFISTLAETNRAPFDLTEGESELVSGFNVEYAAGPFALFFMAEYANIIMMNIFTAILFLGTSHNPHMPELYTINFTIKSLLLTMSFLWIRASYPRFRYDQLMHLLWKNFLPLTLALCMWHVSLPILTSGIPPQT
T3 sequence (Q91WD5 34-463): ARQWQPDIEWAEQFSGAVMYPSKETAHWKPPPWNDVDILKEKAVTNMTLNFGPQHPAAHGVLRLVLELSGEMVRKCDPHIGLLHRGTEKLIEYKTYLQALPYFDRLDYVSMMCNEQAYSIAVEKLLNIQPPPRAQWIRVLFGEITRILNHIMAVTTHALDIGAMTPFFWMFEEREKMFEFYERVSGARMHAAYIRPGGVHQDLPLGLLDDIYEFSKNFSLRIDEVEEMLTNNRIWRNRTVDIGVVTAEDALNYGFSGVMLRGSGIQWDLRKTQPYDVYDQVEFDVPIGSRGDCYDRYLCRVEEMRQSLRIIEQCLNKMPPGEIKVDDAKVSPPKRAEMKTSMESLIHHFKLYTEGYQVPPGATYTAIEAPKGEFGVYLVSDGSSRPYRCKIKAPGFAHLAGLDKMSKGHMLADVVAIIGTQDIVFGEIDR
T3 sequence (Q9DC70 36-224): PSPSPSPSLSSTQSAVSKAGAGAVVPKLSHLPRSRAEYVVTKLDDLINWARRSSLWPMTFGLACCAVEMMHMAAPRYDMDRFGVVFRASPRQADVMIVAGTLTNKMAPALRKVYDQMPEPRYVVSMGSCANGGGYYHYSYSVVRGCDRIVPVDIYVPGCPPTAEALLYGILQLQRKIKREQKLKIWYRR
T3 sequence (P03888 whole entry): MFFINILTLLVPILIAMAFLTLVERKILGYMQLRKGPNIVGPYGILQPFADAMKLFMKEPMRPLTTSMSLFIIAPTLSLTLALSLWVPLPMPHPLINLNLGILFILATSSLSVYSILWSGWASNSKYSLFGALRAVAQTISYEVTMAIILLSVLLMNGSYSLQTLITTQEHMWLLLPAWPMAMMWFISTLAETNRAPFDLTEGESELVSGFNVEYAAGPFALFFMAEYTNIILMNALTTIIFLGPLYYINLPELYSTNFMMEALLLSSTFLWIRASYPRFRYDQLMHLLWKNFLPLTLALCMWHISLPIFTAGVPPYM

With `Nc1ncnc2c1ncn2[C@@H]1O[C@H](COP(=O)(O)OP(=O)(O)OP(=O)(O)O)[C@@H](O)[C@H]1O` [ATP] the “cryo-EM structure, 3.0 Å” value [1] was “replacement of the ADP bound to NDUFA10 with ATP”.

`COC1=C(OC)C(=O)C(C/C=C(\C)CC/C=C(\C)CC/C=C(\C)CC/C=C(\C)CC/C=C(\C)CC/C=C(\C)CC/C=C(\C)CC/C=C(\C)CC/C=C(\C)CCC=C(C)C)=C(C)C1=O` [Q10] was tested, and the “KM,app” value [2] was “modelled by a series of Michaelis–Menten curves for their Q10 dependence”.

For `C/C=C(\C)[C@H](O)[C@H](C)/C=C(C)/C=C/C/C(C)=C/Cc1nc(OC)c(OC)c(O)c1C` [piericidin A], the “cryo-EM structure, 3.0 Å” value [3] was “The piericidin headgroup binds adjacent to NDUFS2 His59 and Tyr108” and the KI [4] was “the second inhibitor binds substantially more tightly than the first”.
